Publication PMC8425881, “De Novo Design of Peptidic Positive Allosteric Modulators Targeting TRPV1 with Analgesic Effects” (Advanced Science, 2021)

Target: T1, Murine TRPV1 (Mus musculus, UniProt Q704Y3)
T1 construct: full-length channel, eYFP fused to C terminus (pEYFP-N3), expressed in HEK293T; cDNA gift of Michael X. Zhu; homotetramer
Experiment: whole-cell patch clamp, Hill fit
Assay type: cell-based

T1 sequence (Q704Y3 whole entry, the tested form may be a part): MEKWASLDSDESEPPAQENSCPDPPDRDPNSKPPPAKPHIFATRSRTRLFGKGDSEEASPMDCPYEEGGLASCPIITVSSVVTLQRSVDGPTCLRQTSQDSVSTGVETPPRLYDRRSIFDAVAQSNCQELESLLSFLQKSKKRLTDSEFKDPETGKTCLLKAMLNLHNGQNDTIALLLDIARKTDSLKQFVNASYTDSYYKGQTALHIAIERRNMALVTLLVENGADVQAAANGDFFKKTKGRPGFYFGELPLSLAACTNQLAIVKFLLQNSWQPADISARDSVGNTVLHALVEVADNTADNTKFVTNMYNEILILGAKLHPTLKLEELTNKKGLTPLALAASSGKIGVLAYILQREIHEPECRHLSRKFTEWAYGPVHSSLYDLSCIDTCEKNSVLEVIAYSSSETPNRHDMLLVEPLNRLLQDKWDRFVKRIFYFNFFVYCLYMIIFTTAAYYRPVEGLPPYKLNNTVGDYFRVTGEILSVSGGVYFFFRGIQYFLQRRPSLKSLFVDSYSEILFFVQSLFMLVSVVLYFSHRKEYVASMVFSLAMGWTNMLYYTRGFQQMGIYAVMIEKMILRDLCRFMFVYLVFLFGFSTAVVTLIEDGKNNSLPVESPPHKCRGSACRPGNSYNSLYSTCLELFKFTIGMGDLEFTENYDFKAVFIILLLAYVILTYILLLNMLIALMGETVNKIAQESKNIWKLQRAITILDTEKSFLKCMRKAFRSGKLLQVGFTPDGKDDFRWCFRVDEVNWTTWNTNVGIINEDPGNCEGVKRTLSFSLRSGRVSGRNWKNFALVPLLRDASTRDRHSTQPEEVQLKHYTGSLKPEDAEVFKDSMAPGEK

In the case of `COc1cc(CNC(=O)CCCC/C=C/C(C)C)ccc1O` [capsaicin], the EC50 is reported as 186 nM.
